In patent US20260373119A1, “NOVEL COMPOUND, AND COMPOSITION FOR PREVENTING OR TREATING HER2-POSITIVE CANCER, COMPRISING SAME” (EWHA UNIVERSITY - INDUSTRY COLLABORATION FOUNDATION, priority 2022, published 2026):

Tests used:
Format in all cases: cell-based
[1] = biological target: T1, ELF3-MED23 protein-protein interaction (Homo sapiens, UniProt Q9ULK4); test: SEAP reporter assay, ELF3-MED23 PPI inhibition (293T kidney cells); conditions: HEK-293T; 10 μM
T1 construct: followed by the addition of either the candidate compound or MED23 protein constructs; endogenous in cells; host or cells: 293T kidney cells (MED23 endogenous; GAL4-ELF3 transfected)
T1 sequence (Q9ULK4 1-1368): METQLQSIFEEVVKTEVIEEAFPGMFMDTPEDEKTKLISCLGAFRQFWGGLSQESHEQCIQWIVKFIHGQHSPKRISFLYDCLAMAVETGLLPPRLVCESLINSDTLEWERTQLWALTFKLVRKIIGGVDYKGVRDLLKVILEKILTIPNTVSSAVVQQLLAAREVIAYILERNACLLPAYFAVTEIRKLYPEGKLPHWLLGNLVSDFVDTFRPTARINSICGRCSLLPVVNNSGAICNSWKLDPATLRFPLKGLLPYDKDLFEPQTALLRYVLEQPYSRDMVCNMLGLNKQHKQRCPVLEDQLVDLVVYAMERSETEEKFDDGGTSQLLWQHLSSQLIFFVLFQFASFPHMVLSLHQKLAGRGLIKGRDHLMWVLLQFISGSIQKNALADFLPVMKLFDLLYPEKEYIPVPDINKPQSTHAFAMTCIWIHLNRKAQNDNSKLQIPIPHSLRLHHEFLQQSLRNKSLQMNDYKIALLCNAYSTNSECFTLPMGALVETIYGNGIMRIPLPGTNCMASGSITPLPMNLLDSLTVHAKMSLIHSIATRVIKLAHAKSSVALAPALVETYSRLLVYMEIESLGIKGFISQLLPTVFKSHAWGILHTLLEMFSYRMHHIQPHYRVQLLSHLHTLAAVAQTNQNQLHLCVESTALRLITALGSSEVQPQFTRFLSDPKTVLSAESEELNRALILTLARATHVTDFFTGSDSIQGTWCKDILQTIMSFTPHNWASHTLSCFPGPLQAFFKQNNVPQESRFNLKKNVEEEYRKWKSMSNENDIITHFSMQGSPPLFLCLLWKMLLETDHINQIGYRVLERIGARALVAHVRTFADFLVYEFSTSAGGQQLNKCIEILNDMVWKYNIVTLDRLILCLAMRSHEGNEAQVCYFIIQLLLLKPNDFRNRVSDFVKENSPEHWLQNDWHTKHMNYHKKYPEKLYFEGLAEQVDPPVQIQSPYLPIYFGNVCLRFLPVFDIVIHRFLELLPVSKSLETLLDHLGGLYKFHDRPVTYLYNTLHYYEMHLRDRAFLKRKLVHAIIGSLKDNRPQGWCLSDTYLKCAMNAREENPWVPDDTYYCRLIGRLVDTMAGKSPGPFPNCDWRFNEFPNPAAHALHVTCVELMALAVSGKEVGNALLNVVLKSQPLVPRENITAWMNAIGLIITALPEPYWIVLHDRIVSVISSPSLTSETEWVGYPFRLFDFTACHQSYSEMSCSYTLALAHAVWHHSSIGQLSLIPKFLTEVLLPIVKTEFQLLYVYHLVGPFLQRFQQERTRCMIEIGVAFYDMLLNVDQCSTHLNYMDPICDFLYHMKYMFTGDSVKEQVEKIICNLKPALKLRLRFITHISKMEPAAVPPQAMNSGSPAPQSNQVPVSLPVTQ
Procedure: To verify whether the D400 and H449 residues play a critical role in the ELF3-MED23 protein-protein interaction, a SEAP assay was performed. Specifically, 293T kidney cells were seeded at a density of 5×10^3 cells/well in a 96-well microplate (SPL, Korea) and cultured overnight. Subsequently, the cells were co-transfected with 100 ng of each plasmid using transfection-optimized medium (Welgene, Korea). The plasmids used included the SEAP reporter gene (pG5IL2SX) and GAL4-ELF3 expression vector (pBJ GAL4-ELF3). For transfection, the cells were incubated with WelFectQ (Welgene, Korea) for 3 hours, followed by the addition of either the candidate compound or MED23 protein constructs (pcDNA MED23^WT, K397A, D400A, H449G, and D400A/H449G). The treated cells were incubated for 12 hours. The candidate compound was added in an incubator at 5% CO2 and 37 °C, and the plate was incubated at 65 °C for 3 hours to inactivate all enzymes except SEAP (Secreted Alkaline Phosphatase). A mixture comprising 100 μL of substrate solution prepared with 1.19 μL of 0.1 M 4-methylumbelliferyl phosphate (Sigma, USA), 25 μL of inactivated medium, and 75 μL of double-distilled water was added, followed by the addition of 98.81 μL of 2 M diethanolamine (pH 10, Sigma, USA). The plate was incubated overnight at 37 °C. Subsequently, the fluorescence intensity was measured using a fluorometer (SPECTRAmax […], Molecular Devices, USA) at an excitation wavelength of 360 nm and an emission wavelength of 440 nm.
To further elaborate on the above findings, small molecule compounds that could affect the ELF3-MED23 PPI were designed and synthesized. Specifically, non-essential side chains were removed from gefitnib, and compounds were designed to include both hydrogen bond donors and acceptors for the D400 and H449 residues of MED23, respectively (FIG. 4A). Specifically, chalcones and pyrazolines were selected as core scaffolds, and 25 compounds (11 chalcones and 14 pyrazoline-based compounds) were prepared. The ELF3-MED23 PPI inhibitory activity of all prepared compounds was measured using a SEAP assay.

[2] = test system: T47D (HER2-negative breast cancer cell line); test: antiproliferative effect, T47D; conditions: Homo sapiens, 72 hours
Procedure: (§1) The antiproliferative effects were measured after treating Compounds 1 to 22 for 72 hours on HCT15 (HER2-positive colorectal cancer cell line), NCI-N87 (HER2-positive gastric cancer cell line), T47D (HER2-negative breast cancer cell line), and HeLa (HER2-negative cervical cancer cell line). As a result, strong antiproliferative effects were generally observed in the NCI-N87 cell line (Table 2).
(§2) The antiproliferative effects of the candidate compound, resulting from HER2 inhibition, were evaluated. Specifically, to confirm the anticancer effects of the candidate compound, cancer cells were seeded at a density of 10^4 cells/well in a 96-well cell culture plate for 20 hours. The cells were starved in serum-free media for 4 hours, followed by replacement with media containing the compound at specified concentrations. The cells were then incubated for 72 hours under conditions of 5% CO2 at 37 °C. Cell viability was determined by adding 5 μL of EZ-CytoX to each well and measuring absorbance at 450 nm. The measurements were performed using an ELISA Microplate Reader (VersaMax, Molecular Devices).

[3] = test system: HCT15 (HER2-positive colorectal cancer cell line); test: antiproliferative effect, HCT15; conditions: Homo sapiens, HCT-15, 72 hours
Procedure: as §1, §2

[4] = test system: NCI-N87 (HER2-positive gastric cancer cell line); test: antiproliferative effect, NCI-N87; conditions: Homo sapiens, NCI-N87; 72 hours; HER2-positive
Procedure: as §1, §2

[5] = test system: HeLa (HER2-negative cervical cancer cell line); test: antiproliferative effect, HeLa; conditions: Homo sapiens, 72 hours
Procedure: as §1, §2

inhibition at 10 µM [1] [%] | IC50 [2] [µM] | IC50 [3] [µM] | IC50 [4] [µM] | IC50 [5] [µM] | SMILES
50 | > 50 | > 50 | 47.76 ± 0.22 | 44.31 ± 0.11 | O=C(/C=C/c1cccs1)c1ccccc1O [Compound 11, 1-(2-Hydroxyphenyl)-3-thiophen-2-yl-propenone]
80 | 8.96 ± 0.02 | 14.36 ± 0.12 | 14.38 ± 0.06 | 5.54 ± 0.21 | O=C(/C=C/c1ccc(Cl)cc1)c1ccccc1O [Compound 10, 3-(4-Chlorophenyl)-1-(2-hydroxyphenyl)-propenone]
45 | > 50 | > 50 | > 50 | > 50 | CC(=O)N1N=C(c2ccccc2O)CC1c1ccc(Cl)cc1 (stereo not shown) [Compound 20, 1-[5-(4-Chlorophenyl)-3-(2-hydroxyphenyl)-4,5-dihydropyrazol-1-yl]-ethanone]
60 | 9.04 ± 0.07 | 8.97 ± 0.17 | 17.82 ± 0.17 | 30.02 ± 0.18 | O=C(/C=C/c1ccc(O)cc1)c1cccc(O)c1 [Compound 5, 3-(4-Hydroxyphenyl)-1-(3-hydroxyphenyl)-propenone]
50 | 27.89 ± 0.06 | > 50 | > 50 | > 50 | O=C(/C=C/c1ccc(O)cc1)c1ccccc1O [Compound 9, 3-(4-Hydroxyphenyl)-1-(2-hydroxyphenyl)-propenone]

More lines, now with the values behind:

SMILES | inhibition at 10 µM [1] [%] | IC50 [2] [µM] | IC50 [3] [µM] | IC50 [4] [µM] | IC50 [5] [µM]
COc1ccc(/C=C/C(=O)c2cccc(O)c2)c2ccccc12 [Compound 3, 1-(3-Hydroxyphenyl)-3-(4-methoxynaphthalen-1-yl)-propenone] | 70 | 1.21 ± 0.02 | 7.64 ± 0.09 | 3.45 ± 0.05 | 9.73 ± 0.04
O=C(/C=C/c1ccco1)c1cccc(O)c1 [Compound 1, 3-Furan-2-yl-1-(3-hydroxyphenyl)-propenone] | 86 | 8.48 ± 0.02 | 29.66 ± 0.14 | 13.5 ± 0.29 | 19.5 ± 0.04
CC(=O)N1N=C(c2ccccc2O)CC1c1ccc(O)cc1 (stereo not shown) [Compound 19, 1-[5-(4-Hydroxyphenyl)-3-(2-hydroxyphenyl)-4,5-dihydropyrazol-1-yl]-ethanone] | 39 | > 50 | > 50 | > 50 | > 50
CCC(=O)N1N=C(c2cccc(O)c2)CC1c1ccc(OC)cc1 (stereo not shown) [Compound 23, 1-[3-(3-Hydroxyphenyl)-5-(4-methoxyphenyl)-4,5-dihydropyrazol-1-yl]-propan-1-one] | 87 | – | – | – | –
COc1ccc(C2CC(c3cccc(O)c3)=NN2C(C)=O)c2ccccc12 (stereo not shown) [Compound 14, 1-[3-(3-Hydroxyphenyl)-5-(4-methoxynaphthalen-1-yl)-4,5-dihydropyrazol-1-yl]-ethanone] | 14 | 5.57 ± 0.26 | 19.5 ± 0.41 | 42.4 ± 0.86 | 0.69
CC(=O)N1N=C(c2ccccc2O)CC1c1ccco1 (stereo not shown) [Compound 17, 1-[5-Furan-2-yl-3-(2-hydroxyphenyl)-4,5-dihydropyrazol-1-yl]-ethanone] | 23 | > 50 | > 50 | > 50 | > 50
CC(=O)N1N=C(c2ccccc2O)CC1c1cccs1 (stereo not shown) [Compound 21, 1-[3-(2-Hydroxyphenyl)-5-thiophen-2-yl-4,5-dihydropyrazol-1-yl]-ethanone] | 57 | > 50 | > 50 | > 50 | > 50
CCC(=O)N1N=C(c2cccc(O)c2)CC1c1ccc(Cl)cc1 (stereo not shown) [Compound 25, 1-[5-(4-Chlorophenyl)-3-(3-hydroxyphenyl)-4,5-dihydropyrazol-1-yl]-propan-1-one] | 42 | – | – | – | –
CCC(=O)N1N=C(c2cccc(O)c2)CC1c1cccs1 (stereo not shown) [Compound 24, 1-[3-(3-Hydroxyphenyl)-5-thiophen-2-yl-4,5-dihydropyrazol-1-yl]-propan-1-one] | 34 | – | – | – | –
